Reference: patent US9593112B2, “Substituted pyrazolylpyrazole derivative and use of same as herbicide” (KYOYU AGRI CO., LTD., priority 2013, dated 2017)
Each block holds one compound with its values, some of them ahead of it.

Legend:
Echinochloa crus-galli = test: Paddy herbicidal activity test; format: in vivo; conditions: irrigated paddy pot, treated at 3.5 leaf stage of Echinochloa crus-galli, 30 days
Protocol: (§1) Rice paddy soil was filled into a 1/10000 are pot followed by the addition of suitable amounts of water and chemical fertilizer, kneading, seeding with Echinochloa crus-galli, Monochoria vaginalis and Scirpus juncoides and maintaining in an irrigated state at a water depth of 3 cm.
(§2) Wettable powder of Target Compound (I) shown in Table 1 prepared in compliance with the preparation examples were diluted with a suitable amount of water, rice plants in the 2.0 leaf stage were transplanted during 3.5 leaf stage of Echinochloa crus-galli, and treated by dropping in chemical in the prescribed amount per are using a pipette.
(§3) After treating for 30 days in a glass greenhouse at an average atmospheric temperature of 30° C., the herbicidal efficacy thereof was investigated.
(§4) Evaluation of herbicidal efficacy was carried out by comparing growth inhibition rate (%) with an untreated group, while evaluation of phytotoxicity was carried out by comparing growth inhibition rate (%) with the state of a complete eradication group, and were evaluated at 11 levels indicated below.

Monochoria vaginalis = test: Paddy herbicidal activity test; format: in vivo; conditions: irrigated paddy pot, 30 days
Protocol: as §1, §2, §3, §4

Scirpus juncoides = test: Paddy herbicidal activity test; format: in vivo; conditions: irrigated paddy pot, 30 days
Protocol: as §1, §2, §3, §4

Rice plants = test: Paddy herbicidal activity test, phytotoxicity to transplanted rice; format: in vivo; conditions: rice transplanted at 2.0 leaf stage, 30 days
Protocol: as §1, §2, §3, §4

Amaranthus retroflexus [1] = test: Farming soil treatment test; format: in vivo; conditions: soil surface spray prior to weed growth, 30 days
Protocol: (§5) Field soil was filled into a 1/6000 are pot followed by seeding with Digitaria ciliaris, Chenopodium album and Amaranthus retroflexus and covering with soil.
(§6) Wettable powder of Target Compound (I) shown in Table 1 prepared in compliance with the preparation examples were diluted with water to the prescribed amount of chemical and uniformly sprayed onto each soil surface layer using 10 liters of sprayed water per are prior to weed growth following seeding.
as §3
(§7) Evaluation of herbicidal efficacy was carried out in the same manner as the above-mentioned Test Example 1.

Chenopodium album [2] = test: Farming soil treatment test; format: in vivo; conditions: soil surface spray prior to weed growth, 30 days
Protocol: as §5, §6, §3, §7

Digitaria ciliaris [3] = test: Farming soil treatment test; format: in vivo; conditions: soil surface spray prior to weed growth, 30 days
Protocol: as §5, §6, §3, §7

Amaranthus retroflexus [4] = test: Weed foliar treatment test; format: in vivo; conditions: foliar spray, 3 weeks
Protocol: (§8) Soil was filled into a 1/6000 are pot followed by seeding with Digitaria ciliaris, Chenopodium album and Amaranthus retroflexus, covering with soil, and cultivating in a glass greenhouse at an average atmospheric temperature of 25° C.
(§9) Wettable powder of Target Compound (I) shown in Table 1 prepared in compliance with the preparation examples were diluted with water to the prescribed amount of chemical and uniformly sprayed onto the weeds using 15 liters of sprayed water per are when Digitaria ciliaris had grown to the 1.0 to 2.0 leaf stage.
(§10) After treating for 3 weeks in a glass greenhouse at an average atmospheric temperature of 25° C., the herbicidal efficacy thereof was investigated.
as §7

Chenopodium album [5] = test: Weed foliar treatment test; format: in vivo; conditions: foliar spray, 3 weeks
Protocol: as §8, §9, §10, §7

Digitaria ciliaris [6] = test: Weed foliar treatment test; format: in vivo; conditions: foliar spray at 1.0 to 2.0 leaf stage of Digitaria ciliaris, 3 weeks
Protocol: as §8, §9, §10, §7

- melting point: 130 to 131 °C
SMILES: C#CCCNc1c(C#N)cnn1-c1nn2c(c1Cl)CCCC2 [Compound 1, 1-(3-chloro-4,5,6,7-tetrahydropyrazolo[1,5-a]pyridin-2-yl)-5-(but-3-ynylamino)pyrazole-4-carbonitrile]
- herbicidal efficacy (growth inhibition level) Echinochloa crus-galli (Echinochloa crus-galli; 1 g a.i./10 a): 9 (9: 90% to less than 100%)
- herbicidal efficacy (growth inhibition level) Echinochloa crus-galli (Echinochloa crus-galli; 5 g a.i./10 a): 10 (10: 100%)
- herbicidal efficacy (growth inhibition level) Monochoria vaginalis (Monochoria vaginalis; 1 g a.i./10 a): 9 (9: 90% to less than 100%)
- herbicidal efficacy (growth inhibition level) Monochoria vaginalis (Monochoria vaginalis; 5 g a.i./10 a): 10 (10: 100%)
- herbicidal efficacy (growth inhibition level) Scirpus juncoides (Scirpus juncoides; 1 g a.i./10 a): 8 (8: 80% to less than 90%)
- herbicidal efficacy (growth inhibition level) Scirpus juncoides (Scirpus juncoides; 5 g a.i./10 a): 10 (10: 100%)
- phytotoxicity (growth inhibition level) Rice plants (Rice plants; 1 g a.i./10 a): 0 (0 (exponent): 0% to less than 10% (growth inhibition rate))
- phytotoxicity (growth inhibition level) Rice plants (Rice plants; 5 g a.i./10 a): 1 (1: 10% to less than 20%)
- herbicidal efficacy (growth inhibition level) Amaranthus retroflexus (Amaranthus retroflexus [1]; 5 g a.i./10 a): 10 (10: 100%)
- herbicidal efficacy (growth inhibition level) Amaranthus retroflexus (Amaranthus retroflexus [1]; 10 g a.i./10 a): 10 (10: 100%)
- herbicidal efficacy (growth inhibition level) Chenopodium album (Chenopodium album [2]; 5 g a.i./10 a): 10 (10: 100%)
- herbicidal efficacy (growth inhibition level) Chenopodium album (Chenopodium album [2]; 10 g a.i./10 a): 10 (10: 100%)
- herbicidal efficacy (growth inhibition level) Digitaria ciliaris (Digitaria ciliaris [3]; 5 g a.i./10 a): 10 (10: 100%)
- herbicidal efficacy (growth inhibition level) Digitaria ciliaris (Digitaria ciliaris [3]; 10 g a.i./10 a): 10 (10: 100%)
- herbicidal efficacy (growth inhibition level) Amaranthus retroflexus (Amaranthus retroflexus [4]; 5 g a.i./10 a): 10 (10: 100%)
- herbicidal efficacy (growth inhibition level) Amaranthus retroflexus (Amaranthus retroflexus [4]; 10 g a.i./10 a): 10 (10: 100%)
- herbicidal efficacy (growth inhibition level) Chenopodium album (Chenopodium album [5]; 5 g a.i./10 a): 10 (10: 100%)
- herbicidal efficacy (growth inhibition level) Chenopodium album (Chenopodium album [5]; 10 g a.i./10 a): 10 (10: 100%)
- herbicidal efficacy (growth inhibition level) Digitaria ciliaris (Digitaria ciliaris [6]; 5 g a.i./10 a): 10 (10: 100%)
- herbicidal efficacy (growth inhibition level) Digitaria ciliaris (Digitaria ciliaris [6]; 10 g a.i./10 a): 10 (10: 100%)

SMILES: C#CCN(C)c1c(C#N)cnn1-c1nn2c(c1Cl)CCCC2 [Compound 4.73, 1-(3-chloro-4,5,6,7-tetrahydropyrazolo[1,5-a]pyridin-2-yl)-5-[methyl(prop-2-ynyl)amino]pyrazole-4-carbonitrile]
- herbicidal efficacy (growth inhibition level) Echinochloa crus-galli (Echinochloa crus-galli; 1 g a.i./10 a): 2 (2: 20% to less than 30%)
- herbicidal efficacy (growth inhibition level) Echinochloa crus-galli (Echinochloa crus-galli; 5 g a.i./10 a): 4 (4: 40% to less than 50%)
- herbicidal efficacy (growth inhibition level) Monochoria vaginalis (Monochoria vaginalis; 1 g a.i./10 a): 3 (3: 30% to less than 40%)
- herbicidal efficacy (growth inhibition level) Monochoria vaginalis (Monochoria vaginalis; 5 g a.i./10 a): 4 (4: 40% to less than 50%)
- herbicidal efficacy (growth inhibition level) Scirpus juncoides (Scirpus juncoides; 1 g a.i./10 a): 0 (0 (exponent): 0% to less than 10% (growth inhibition rate))
- herbicidal efficacy (growth inhibition level) Scirpus juncoides (Scirpus juncoides; 5 g a.i./10 a): 1 (1: 10% to less than 20%)
- phytotoxicity (growth inhibition level) Rice plants (Rice plants; 1 g a.i./10 a): 0 (0 (exponent): 0% to less than 10% (growth inhibition rate))
- phytotoxicity (growth inhibition level) Rice plants (Rice plants; 5 g a.i./10 a): 1 (1: 10% to less than 20%)
- herbicidal efficacy (growth inhibition level) Amaranthus retroflexus (Amaranthus retroflexus [1]; 5 g a.i./10 a): 1 (1: 10% to less than 20%)
- herbicidal efficacy (growth inhibition level) Amaranthus retroflexus (Amaranthus retroflexus [1]; 10 g a.i./10 a): 2 (2: 20% to less than 30%)
- herbicidal efficacy (growth inhibition level) Chenopodium album (Chenopodium album [2]; 5 g a.i./10 a): 1 (1: 10% to less than 20%)
- herbicidal efficacy (growth inhibition level) Chenopodium album (Chenopodium album [2]; 10 g a.i./10 a): 2 (2: 20% to less than 30%)
- herbicidal efficacy (growth inhibition level) Digitaria ciliaris (Digitaria ciliaris [3]; 5 g a.i./10 a): 0 (0 (exponent): 0% to less than 10% (growth inhibition rate))
- herbicidal efficacy (growth inhibition level) Digitaria ciliaris (Digitaria ciliaris [3]; 10 g a.i./10 a): 1 (1: 10% to less than 20%)
- herbicidal efficacy (growth inhibition level) Amaranthus retroflexus (Amaranthus retroflexus [4]; 5 g a.i./10 a): 3 (3: 30% to less than 40%)
- herbicidal efficacy (growth inhibition level) Amaranthus retroflexus (Amaranthus retroflexus [4]; 10 g a.i./10 a): 3 (3: 30% to less than 40%)
- herbicidal efficacy (growth inhibition level) Chenopodium album (Chenopodium album [5]; 5 g a.i./10 a): 2 (2: 20% to less than 30%)
- herbicidal efficacy (growth inhibition level) Chenopodium album (Chenopodium album [5]; 10 g a.i./10 a): 3 (3: 30% to less than 40%)
- herbicidal efficacy (growth inhibition level) Digitaria ciliaris (Digitaria ciliaris [6]; 5 g a.i./10 a): 1 (1: 10% to less than 20%)
- herbicidal efficacy (growth inhibition level) Digitaria ciliaris (Digitaria ciliaris [6]; 10 g a.i./10 a): 2 (2: 20% to less than 30%)
